The record followed here is ChEMBL document CHEMBL2157938, “Use of structure based design to increase selectivity of pyridyl-cinnoline phosphodiesterase 10A (PDE10A) inhibitors against phosphodiesterase 3 (PDE3)” (Bioorg Med Chem Lett, 2012).

Usually IC50 stands for the concentration needed to halve the response being measured. For orientation: half-life means the time in which the quantity being followed falls by half. Read a low half-life as rapid decline. The bioavailability is dose-corrected exposure relative to a reference, in per cent.

The nature of data set [1]: Inhibition of mouse PDE10A7 using fluorescein labeled CAMP as substrate incubated for 30 mins prior to substrate addition measured after 30 mins by fluorescence polarization assay. (In general: Fluorescence polarisation rises when a labelled molecule tumbles more slowly, as on binding a larger partner.)
A short description of data set [2]: Inhibition of PDE3.
The nature of data set [3]: Selectivity ratio of IC50 for PDE3 to IC50 for mouse PDE10A7.
A short description of data set [4]: Clearance in rat liver microsomes. As to conditions: read-out: CLH. In kind it is ADME, Microsome. (Liver microsomes are vesicles of endoplasmic reticulum, rich in cytochrome P450 enzymes.)
Data set [5] in a line: Half life in rat at 1 mg/kg, iv and 5 mg/kg, po. In kind it is ADME, organism-based. As to conditions: in vivo.
Data set [6] can be described thus: Oral bioavailability in rat at 5 mg/kg. In kind it is ADME, organism-based. As to conditions: in vivo.
Data set [7] in a line: Clearance in rat at 1 mg/kg, iv and 5 mg/kg, po. In kind it is ADME, organism-based. Conditions: in vivo.

Turning to `COc1cc2c(-c3cnc(N4CCC(C(C)(C)O)CC4)c(C)c3)cnnc2cc1OC(F)F`, the values for the IC50 in data set [1] and in data set [2] were 68.6 nM and 15900 nM, respectively. Moreover, in data set [3], the Ratio IC50 was found to be 231.
`COc1cc2snc(-c3ccc(NC(C)C)nc3)c2cc1OC` gave an IC50 in data set [1] of 1090 nM. In other words, the single-digit micromolar range.
`COc1cc2nncc(-c3cnc(N4CCC(C(C)(C)O)CC4)c(C4CC4)c3)c2cc1OC`: the concentration for half-maximal inhibition (IC50) in data set [1] was determined as 1.3 nM; in data set [2], 2980 nM. In data set [3], the Ratio IC50 was 2290.
Molecule `COc1cc2nncc(-c3ccc(NC(C)C)nc3)c2cc1OC` returned a 50% inhibitory concentration (IC50) in data set [1] of 7.6 nM.
Consider `COc1cc2cncc(-c3cnc(N4CCC(C(C)(C)O)CC4)c(C)c3)c2cc1OC`, for which the IC50 in data set [1] was determined as 13.4 nM. Further, the microsomal CLint in data set [4] stood at 69 µL/min/mg.
For `CCOc1cc2c(-c3cnc(N4CCC(C(C)(C)O)CC4)c(C)c3)cnnc2cc1C`, the IC50 in data set [1] was 40.9 nM; in data set [2], above 10000 nM. For the same molecule, the Ratio IC50 in data set [3] is above 244.
The like results for `COc1cc2c(-c3cnc(N4CCC(C(C)(C)O)CC4)c(C)c3)cnnc2cc1OCC1CC1` were, in that order, 19.1 nM, above 10000 nM and above 523.
Take `COc1cc2nncc(-c3cnc(N4CCC(C(C)(C)O)CC4)c(C(F)F)c3)c2cc1OC`: the half-life in data set [5] is 2.08 h. For the same molecule, the IC50 in data set [1] was determined as 1.2 nM; in data set [2] it was 6630 nM. Further, the bioavailability in data set [6] came to 46%. The Ratio IC50 in data set [3] was 5520.
Take `COc1cc2nccc(-c3cnc(N4CCC(C(C)(C)O)CC4)c(C)c3)c2cc1OC`: the IC50 in data set [1] was found to be 11.9 nM. Also, in data set [4], the microsomal CLint turned out to be 57 µL/min/mg.
The molecule `COc1cc2nncc(-c3cnc(N4CCC(C(C)(C)O)CC4)c(C)c3)c2cc1OC` had a half-life in data set [5] of 1.54 h. Further, in data set [2], the IC50 worked out at 1700 nM. The bioavailability in data set [6] was 60%. Moreover, the Ratio IC50 in data set [3] was found to be 347.
With `COc1cc2nncc(-c3cnc(N4CCC(C(C)(C)O)CC4)c(C)c3)c2cc1OC1CC1`, in data set [5], the half-life is 1.48 h. In addition, the clearance in data set [7] was 15.5 mL/min/kg. For the same molecule, the 50% inhibitory concentration (IC50) turned out to be 4.1 nM in data set [1] and 17900 nM in data set [2]. The molecule further displayed a bioavailability in data set [6] of 32%. In addition, the Ratio IC50 in data set [3] was 4360.
For the molecule `COc1cc2c(-c3cnc(N4CCC(C(C)(C)O)CC4)c(C)c3)cnnc2cc1F`, the IC50 in data set [1] is 132 nM; in data set [2], above 10000 nM. The Ratio IC50 in data set [3] is above 75.
`COc1cc2nncc(-c3cnc(N4CCC(C(C)(C)O)CC4)c(C)c3)c2cc1C`: the IC50 in data set [1] amounted to 25.6 nM; in data set [2] it was 25100 nM. Moreover, the Ratio IC50 in data set [3] worked out at 980.
On to `COc1cc2nncc(-c3cnc(N4CCC(C(C)(C)O)CC4)c(Cl)c3)c2cc1OC`, for which the IC50 in data set [1] was found to be 6.3 nM; in data set [2] it was 2250 nM. For the same molecule, the Ratio IC50 in data set [3] was found to be 357.
On to `COc1cc2nncc(-c3cnc(N4CCC(C(C)(C)O)CC4)c(C)c3)c2cc1N(C)C`, for which the 50% inhibitory concentration (IC50) in data set [1] is 4500 nM; in data set [2], above 10000 nM.
In data set [1], `CCn1cc(-c2cnc(N3CCC(C(C)(C)O)CC3)c(C)c2)c2cc(OC)c(OC)cc2c1=O` gave a 50% inhibitory concentration (IC50) of 13.8 nM. For the same molecule, the microsomal CLint in data set [4] came to 50 µL/min/mg.
`COc1cc2ccnc(-c3ccc(NC(C)C)nc3)c2cc1OC` returned an IC50 in data set [1] of 47 nM.
